In ChEMBL document CHEMBL5113443, “Design, synthesis and properties of peptide inhibitors based on BRCA1856-871” (Bioorg Med Chem Lett, 2022):
Values belong to the molecule of their own block, whether it stands above or below them. Where a SMILES comes first, the peptide text is derived from it. The star is where a group is joined. Nicotinoyl(6-CF3) = O=C(c1ccc(C(F)(F)F)nc1)*; X1 = O=C(c1cncc(C(F)(F)F)c1)*; X5 = O=C(c1ccc[n+]([O-])c1)*; Nicotinoyl = O=C(c1cccnc1)*; X2 = O=C(c1cccnc1C(F)(F)F)*; X3 = O=C(c1cccnc1Br)*; X4 = Cc1ccncc1C(=O)*; X6 = O=C(c1cccnc1S)*

Tests used:
[1] = molecular target: T1, DNA repair protein RAD51 homolog 1 (Homo sapiens) (UniProt Q06609); assay: Binding affinity to RAD51 (158 to 180 residues) (unknown origin) assessed as binding constant by fluorescence spectroscopy
T1 sequence (whole entry): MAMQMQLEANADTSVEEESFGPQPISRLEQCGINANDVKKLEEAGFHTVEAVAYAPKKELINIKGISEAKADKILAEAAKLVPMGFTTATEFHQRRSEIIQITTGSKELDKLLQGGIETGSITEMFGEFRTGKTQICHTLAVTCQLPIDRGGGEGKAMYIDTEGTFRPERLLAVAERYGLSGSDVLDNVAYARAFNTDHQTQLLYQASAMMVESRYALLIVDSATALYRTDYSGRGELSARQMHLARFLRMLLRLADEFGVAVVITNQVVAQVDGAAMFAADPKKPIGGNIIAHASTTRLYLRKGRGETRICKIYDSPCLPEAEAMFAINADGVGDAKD

[2] = molecular target: T1, DNA repair protein RAD51 homolog 1 (Homo sapiens); assay: Binding affinity to RAD51 (158 to 180 residues) (unknown origin) assessed as reduction in fluorescence intensity by fluorescence spectroscopy; conditions: dose 6-30 µM, DDE = dose-dependent effect
[3] = molecular target: T1, DNA repair protein RAD51 homolog 1 (Homo sapiens); assay: Binding affinity to RAD51 (158 to 180 residues) (unknown origin) assessed as beta-turn content at 15 uM by circular dichroism spectroscopy (reference value: 16.2%)
[4] = molecular target: T1, DNA repair protein RAD51 homolog 1 (Homo sapiens); assay: Binding affinity to RAD51 (158 to 180 residues) (unknown origin) assessed as random coil content at 15 uM by circular dichroism spectroscopy (reference value: 39.2%)
[5] = molecular target: T1, DNA repair protein RAD51 homolog 1 (Homo sapiens); assay: Binding affinity to RAD51 (158 to 180 residues) (unknown origin) assessed as alpha-helical content at 15 uM by circular dichroism spectroscopy (reference value: 26.9%)
[6] = test system: MCF7; assay: Cytotoxicity against human MCF7 cells assessed as cell viability at 100 uM relative to control; type: functional; conditions: read-out: Activity
[7] = molecular target: T1, DNA repair protein RAD51 homolog 1 (Homo sapiens); assay: Binding affinity to RAD51 (158 to 180 residues) (unknown origin) assessed as quenching rate constant by fluorescence spectroscopy
[8] = molecular target: T1, DNA repair protein RAD51 homolog 1 (Homo sapiens); assay: Binding affinity to RAD51 (158 to 180 residues) (unknown origin) assessed as beta-sheet content at 15 uM by circular dichroism spectroscopy (reference value: 17.7%)
[9] = test system: HEK293; assay: Cytotoxicity against HEK293 cells assessed as reduction in cell viability at 200 uM; type: toxicity, cell-based; conditions: human, hek293, 200 µM

Structure (SMILES): CC(C)C[C@H](NC(=O)[C@@H](N)Cc1ccc(O)cc1)C(=O)N[C@@H](CCC(N)=O)C(=O)N[C@@H](CC(N)=O)C(=O)N[C@H](C(=O)N[C@@H](Cc1ccccc1)C(=O)N[C@@H](CCCCN)C(=O)N[C@H](C(=O)N[C@@H](CO)C(=O)N[C@@H](CCCCN)C(=O)N[C@@H](CCCNC(=N)N)C(=O)N[C@@H](CCC(N)=O)C(=O)N[C@@H](CO)C(=O)N[C@@H](Cc1ccccc1)C(=O)N[C@@H](C)C(=O)N1CCC[C@H]1C(=O)O)C(C)C)[C@@H](C)O (H-YLQNTFKVSKRQSFAP-OH)
Binding constant [1]: 0.33 10^4/M | Activity [2]: Dde | Activity [3]: 26.4% | Activity [4]: 18% | Activity [5]: 37.1% | viability at 100 µM [6]: 90.6% | Kq [7]: 1.13 10^12/M | Activity [8]: 18.5% | Activity [9]: Non-Toxic

Structure (SMILES): CC(C)C[C@H](NC(=O)[C@H](Cc1ccc(O)cc1)NC(=O)c1cncc(C(F)(F)F)c1)C(=O)N[C@@H](CCC(N)=O)C(=O)N[C@@H](CC(N)=O)C(=O)N[C@H](C(=O)N[C@@H](Cc1ccccc1)C(=O)N[C@@H](CCCCN)C(=O)N[C@H](C(=O)N[C@@H](CO)C(=O)N[C@@H](CCCCN)C(=O)N[C@@H](CCCNC(=N)N)C(=O)N[C@@H](CCC(N)=O)C(=O)N[C@@H](CO)C(=O)N[C@@H](Cc1ccccc1)C(=O)N[C@@H](C)C(=O)N1CCC[C@H]1C(N)=O)C(C)C)[C@@H](C)O (X1-YLQNTFKVSKRQSFAP-NH2)
Binding constant [1]: 1.56 10^4/M | Activity [3]: 16.5% | Activity [4]: 23.4% | Activity [5]: 46.7% | viability at 100 µM [6]: 71% | Kq [7]: 1.32 10^12/M | Activity [8]: 13.4% | Activity [9]: Non-Toxic

Structure (SMILES): CC(C)C[C@H](NC(=O)[C@H](Cc1ccc(O)cc1)NC(=O)c1cccnc1C(F)(F)F)C(=O)N[C@@H](CCC(N)=O)C(=O)N[C@@H](CC(N)=O)C(=O)N[C@H](C(=O)N[C@@H](Cc1ccccc1)C(=O)N[C@@H](CCCCN)C(=O)N[C@H](C(=O)N[C@@H](CO)C(=O)N[C@@H](CCCCN)C(=O)N[C@@H](CCCNC(=N)N)C(=O)N[C@@H](CCC(N)=O)C(=O)N[C@@H](CO)C(=O)N[C@@H](Cc1ccccc1)C(=O)N[C@@H](C)C(=O)N1CCC[C@H]1C(N)=O)C(C)C)[C@@H](C)O (X2-YLQNTFKVSKRQSFAP-NH2)
Binding constant [1]: 4.07 10^4/M | Activity [3]: 11.6% | Activity [4]: 10.8% | Activity [5]: 51.3% | viability at 100 µM [6]: 81.5% | Kq [7]: 0.61 10^12/M | Activity [8]: 26.3% | Activity [9]: Non-Toxic

Structure (SMILES): CC(C)C[C@H](NC(=O)[C@H](Cc1ccc(O)cc1)NC(=O)c1cccnc1Br)C(=O)N[C@@H](CCC(N)=O)C(=O)N[C@@H](CC(N)=O)C(=O)N[C@H](C(=O)N[C@@H](Cc1ccccc1)C(=O)N[C@@H](CCCCN)C(=O)N[C@H](C(=O)N[C@@H](CO)C(=O)N[C@@H](CCCCN)C(=O)N[C@@H](CCCNC(=N)N)C(=O)N[C@@H](CCC(N)=O)C(=O)N[C@@H](CO)C(=O)N[C@@H](Cc1ccccc1)C(=O)N[C@@H](C)C(=O)N1CCC[C@H]1C(N)=O)C(C)C)[C@@H](C)O (X3-YLQNTFKVSKRQSFAP-NH2)
Binding constant [1]: 0.18 10^4/M | Activity [3]: 21.6% | Activity [4]: 27.6% | Activity [5]: 37.7% | Kq [7]: 1.7 10^12/M | Activity [8]: 13.1%

Structure (SMILES): CC(C)C[C@H](NC(=O)[C@H](Cc1ccc(O)cc1)NC(=O)c1ccc[n+]([O-])c1)C(=O)N[C@@H](CCC(N)=O)C(=O)N[C@@H](CC(N)=O)C(=O)N[C@H](C(=O)N[C@@H](Cc1ccccc1)C(=O)N[C@@H](CCCCN)C(=O)N[C@H](C(=O)N[C@@H](CO)C(=O)N[C@@H](CCCCN)C(=O)N[C@@H](CCCNC(=N)N)C(=O)N[C@@H](CCC(N)=O)C(=O)N[C@@H](CO)C(=O)N[C@@H](Cc1ccccc1)C(=O)N[C@@H](C)C(=O)N1CCC[C@H]1C(N)=O)C(C)C)[C@@H](C)O (X5-YLQNTFKVSKRQSFAP-NH2)
Binding constant [1]: 0.89 10^4/M | Activity [3]: 14% | Activity [4]: 32.2% | Activity [5]: 40.6% | Kq [7]: 1.34 10^12/M | Activity [8]: 13.2%

Structure (SMILES): CC(C)C[C@H](NC(=O)[C@H](Cc1ccc(O)cc1)NC(=O)c1ccc(C(F)(F)F)nc1)C(=O)N[C@@H](CCC(N)=O)C(=O)N[C@@H](CC(N)=O)C(=O)N[C@H](C(=O)N[C@@H](Cc1ccccc1)C(=O)N[C@@H](CCCCN)C(=O)N[C@H](C(=O)N[C@@H](CO)C(=O)N[C@@H](CCCCN)C(=O)N[C@@H](CCCNC(=N)N)C(=O)N[C@@H](CCC(N)=O)C(=O)N[C@@H](CO)C(=O)N[C@@H](Cc1ccccc1)C(=O)N[C@@H](C)C(=O)N1CCC[C@H]1C(N)=O)C(C)C)[C@@H](C)O ({Nicotinoyl(6-CF3)}-YLQNTFKVSKRQSFAP-NH2)
Binding constant [1]: 1.97 10^4/M | Activity [3]: 18.4% | Activity [4]: 22.1% | Activity [5]: 48.3% | viability at 100 µM [6]: 79.1% | Kq [7]: 1.24 10^12/M | Activity [8]: 11.2% | Activity [9]: Non-Toxic

The next lines start with results.

Binding constant [1]: 1.26 10^4/M | Activity [3]: 20.1% | Activity [4]: 22.6% | Activity [5]: 43.4% | Kq [7]: 0.96 10^12/M | Activity [8]: 13.9%
Structure (SMILES): CC(C)C[C@H](NC(=O)[C@H](Cc1ccc(O)cc1)NC(=O)c1cccnc1)C(=O)N[C@@H](CCC(N)=O)C(=O)N[C@@H](CC(N)=O)C(=O)N[C@H](C(=O)N[C@@H](Cc1ccccc1)C(=O)N[C@@H](CCCCN)C(=O)N[C@H](C(=O)N[C@@H](CO)C(=O)N[C@@H](CCCCN)C(=O)N[C@@H](CCCNC(=N)N)C(=O)N[C@@H](CCC(N)=O)C(=O)N[C@@H](CO)C(=O)N[C@@H](Cc1ccccc1)C(=O)N[C@@H](C)C(=O)N1CCC[C@H]1C(N)=O)C(C)C)[C@@H](C)O (Nicotinoyl-YLQNTFKVSKRQSFAP-NH2)
viability at 100 µM [6]: 80.9% | Activity [9]: Non-Toxic

Binding constant [1]: 0.76 10^4/M | Activity [3]: 18.1% | Activity [4]: 32.7% | Activity [5]: 37.9% | Kq [7]: 1.77 10^12/M | Activity [8]: 11.3%
Structure (SMILES): Cc1ccncc1C(=O)N[C@@H](Cc1ccc(O)cc1)C(=O)N[C@@H](CC(C)C)C(=O)N[C@@H](CCC(N)=O)C(=O)N[C@@H](CC(N)=O)C(=O)N[C@H](C(=O)N[C@@H](Cc1ccccc1)C(=O)N[C@@H](CCCCN)C(=O)N[C@H](C(=O)N[C@@H](CO)C(=O)N[C@@H](CCCCN)C(=O)N[C@@H](CCCNC(=N)N)C(=O)N[C@@H](CCC(N)=O)C(=O)N[C@@H](CO)C(=O)N[C@@H](Cc1ccccc1)C(=O)N[C@@H](C)C(=O)N1CCC[C@H]1C(N)=O)C(C)C)[C@@H](C)O (X4-YLQNTFKVSKRQSFAP-NH2)

Binding constant [1]: 0.72 10^4/M | Activity [3]: 28.8% | Activity [4]: 24.2% | Activity [5]: 36.2% | Kq [7]: 5.85 10^12/M | Activity [8]: 10.8%
Structure (SMILES): CC(C)C[C@H](NC(=O)[C@H](Cc1ccc(O)cc1)NC(=O)c1cccnc1S)C(=O)N[C@@H](CCC(N)=O)C(=O)N[C@@H](CC(N)=O)C(=O)N[C@H](C(=O)N[C@@H](Cc1ccccc1)C(=O)N[C@@H](CCCCN)C(=O)N[C@H](C(=O)N[C@@H](CO)C(=O)N[C@@H](CCCCN)C(=O)N[C@@H](CCCNC(=N)N)C(=O)N[C@@H](CCC(N)=O)C(=O)N[C@@H](CO)C(=O)N[C@@H](Cc1ccccc1)C(=O)N[C@@H](C)C(=O)N1CCC[C@H]1C(N)=O)C(C)C)[C@@H](C)O (X6-YLQNTFKVSKRQSFAP-NH2)
